Results from ChEMBL document CHEMBL3885861, “Open TG-GATES”.

Species on record: Rattus norvegicus
Experiment: Open TG-GATES - Regimen: Daily Repeat
Format: toxicity, organism-based, Sprague-Dawley
Set-up: regimen Daily Repeat, gender Male, age 6 weeks
Conditions: in vivo, po, route gavage; for ALT / AST / BUN / CRE / Ca / Cl / DBIL / GLC / IP / K / LDH / Na / PL / RALB / TBIL / TC / TG / TP / gamma-GTP / A/G / ALP: tissue Plasma; for APTT / Bas / Eos / Fbg / Hb / Ht / Lym / MCH / MCHC / MCV / Mono / Neu / PT / Plat / RBC / Ret / WBC: tissue Blood; for KIDNEY_L / KIDNEY_R / KIDNEY_TOTAL: tissue Kidney; for LIVER: tissue Liver
[1] = 30 mg/kg, […], dose level Low, time 14 day
[2] = 30 mg/kg, […], dose level Low, time 28 day
[3] = 100 mg/kg, 72 h, dose level Middle, time 3 day
[4] = 100 mg/kg, […], dose level Middle, time 7 day
[5] = 100 mg/kg, […], dose level Middle, time 14 day
[6] = 100 mg/kg, […], dose level Middle, time 28 day

SMILES: CCc1cc(C(N)=S)ccn1 [ETHIONAMIDE]
- ALT [1]: 34.8 IU/L
- AST [1]: 62.4 IU/L
- BUN [1]: 17.6 mg/dL
- CRE [1]: 0.5 mg/dL
- Ca [1]: 10.8 mg/dL
- Cl [1]: 104.4 meq/L
- DBIL [1]: 0.026 mg/dL
- GLC [1]: 206.6 mg/dL
- IP [1]: 7.2 mg/dL
- K [1]: 4.4 meq/L
- LDH [1]: 95.4 IU/L
- Na [1]: 142.2 meq/L
- PL [1]: 152.2 mg/dL
- RALB [1]: 4.1 g/dL
- TBIL [1]: 0.3 mg/dL
- TC [1]: 70.4 mg/dL
- TG [1]: 107.6 mg/dL
- TP [1]: 5.9 g/dL
- gamma-GTP [1]: 1.8 IU/L
- A/G [2]: 2.2
- ALP [2]: 680.6 IU/L
- ALT [2]: 35.8 IU/L
- AST [2]: 60 IU/L
- BUN [2]: 21.2 mg/dL
- CRE [2]: 0.7 mg/dL
- Ca [2]: 10.1 mg/dL
- Cl [2]: 106 meq/L
- DBIL [2]: 0.022 mg/dL
- GLC [2]: 198.8 mg/dL
- IP [2]: 6.3 mg/dL
- K [2]: 4.6 meq/L
- LDH [2]: 95.2 IU/L
- Na [2]: 140.4 meq/L
- PL [2]: 143.8 mg/dL
- RALB [2]: 4.1 g/dL
- TBIL [2]: 0.3 mg/dL
- TC [2]: 71.4 mg/dL
- TG [2]: 129 mg/dL
- TP [2]: 6 g/dL
- gamma-GTP [2]: 1.6 IU/L
- TERMINAL_BW [3]: 233.1 g
- APTT [3]: 17.5 s
- Bas [3]: 0%
- Eos [3]: 1%
- Fbg [3]: 209 mg/dL
- Hb [3]: 14.5 g/dL
- Ht [3]: 42.6%
- Lym [3]: 67%
- MCH [3]: 21.7 pg
- MCHC [3]: 33.9%
- MCV [3]: 64 fL
- Mono [3]: 10.8%
- Neu [3]: 21.6%
- PT [3]: 11.6 s
- Plat [3]: 130 x10_4/uL
- RBC [3]: 666.2 x10_4/ul
- Ret [3]: 10.3%
- WBC [3]: 119.1 x10_2/uL
- KIDNEY_L [3]: 1.1 g
- KIDNEY_R [3]: 1.1 g
- KIDNEY_TOTAL [3]: 2.2 g
- LIVER [3]: 12.4 g
- A/G [3]: 2
- ALP [3]: 951.2 IU/L
- ALT [3]: 41.6 IU/L
- AST [3]: 65.6 IU/L
- BUN [3]: 17.4 mg/dL
- CRE [3]: 0.5 mg/dL
- Ca [3]: 10.5 mg/dL
- Cl [3]: 104.2 meq/L
- DBIL [3]: 0.032 mg/dL
- GLC [3]: 197.6 mg/dL
- IP [3]: 7.1 mg/dL
- K [3]: 4.7 meq/L
- LDH [3]: 94.2 IU/L
- Na [3]: 140.8 meq/L
- PL [3]: 125 mg/dL
- RALB [3]: 3.6 g/dL
- TBIL [3]: 0.2 mg/dL
- TC [3]: 65.4 mg/dL
- TG [3]: 59.2 mg/dL
- TP [3]: 5.4 g/dL
- gamma-GTP [3]: 1 IU/L
- TERMINAL_BW [4]: 267.6 g
- TERMINAL_BW [5]: 316.7 g
- TERMINAL_BW [6]: 405.2 g
- APTT [4]: 17 s
- Bas [4]: 0%
- Eos [4]: 1%
- Fbg [4]: 212 mg/dL
- Hb [4]: 14.2 g/dL
- Ht [4]: 42.3%
- Lym [4]: 68.6%
- MCH [4]: 20.9 pg
- MCHC [4]: 33.7%
- MCV [4]: 62.1 fL
- Mono [4]: 8.6%
- Neu [4]: 21.6%
- PT [4]: 11.7 s
- Plat [4]: 148.8 x10_4/uL
- RBC [4]: 681.8 x10_4/ul
- Ret [4]: 3.6%
- WBC [4]: 136.5 x10_2/uL
- APTT [5]: 17.7 s
- Bas [5]: 0%
- Eos [5]: 1.4%
- Fbg [5]: 221 mg/dL
- Hb [5]: 15.2 g/dL
- Ht [5]: 44.6%
- Lym [5]: 63.8%
- MCH [5]: 21.4 pg
- MCHC [5]: 34.2%
- MCV [5]: 62.6 fL
- Mono [5]: 4.4%
- Neu [5]: 30.4%
- PT [5]: 11.8 s
- Plat [5]: 131.1 x10_4/uL
- RBC [5]: 712 x10_4/ul
- Ret [5]: 4.9%
- WBC [5]: 203.6 x10_2/uL
- APTT [6]: 16.9 s
- Bas [6]: 0%
- Eos [6]: 1.6%
- Fbg [6]: 228.4 mg/dL
- Hb [6]: 15.9 g/dL
- Ht [6]: 46.2%
- Lym [6]: 72.4%
- MCH [6]: 20.4 pg
- MCHC [6]: 34.4%
- MCV [6]: 59.3 fL
- Mono [6]: 4.8%
- Neu [6]: 21.2%
- PT [6]: 11.7 s
- Plat [6]: 140.7 x10_4/uL
- RBC [6]: 780.4 x10_4/ul
- Ret [6]: 7.8%
- WBC [6]: 170.4 x10_2/uL
- KIDNEY_L [4]: 1.1 g
- KIDNEY_R [4]: 1.2 g
- KIDNEY_TOTAL [4]: 2.4 g
- KIDNEY_L [5]: 1.4 g
- KIDNEY_R [5]: 1.4 g
- KIDNEY_TOTAL [5]: 2.8 g
- KIDNEY_L [6]: 1.6 g
- KIDNEY_R [6]: 1.6 g
- KIDNEY_TOTAL [6]: 3.2 g
- LIVER [4]: 13.1 g
- LIVER [5]: 16 g
- LIVER [6]: 18.7 g
- A/G [4]: 1.8
- ALP [4]: 899 IU/L
- ALT [4]: 40.8 IU/L
